Assay results from US11364246B2, “Compounds” (TMEM16A Limited, priority 2019, dated 2022).

Biological target: human TMEM16A (Homo sapiens, UniProt Q5XXA6)
Experiment: Automated whole-cell patch clamp (Qpatch) assay to detect TMEM16A activity in recombinant cells
Format: cell-based
Details: 3.33 μM test compound; % increase of baseline TMEM16A current; FRT cells stably expressing human TMEM16A (TMEM16Aabc variant); intracellular calcium at EC20
Procedure: Automated Whole-Cell Patch Clamp Assay to Detect TMEM16A Activity in Recombinant Cells
Fisher rat thyroid (FRT) cells stably expressing human TMEM16A (TMEM16Aabc variant; Dr Luis Galietta, Insituto Giannina, Italy) were cultured in T-75 flasks in Hams F-12 media with Coon's modification (Sigma) supplemented with 10% (v/v) foetal bovine serum, penicillin-streptomycin (10,000 U/mL/10000 pg/mL), G-418 (750 pg/mL), L-glutamine (2 mM) and sodium bicarbonate solution (7.5% v/v). At −90% confluence cells were harvested for experiments by detachment with a 2:1 (v/v) mixture of Detachin (BMS Biotechnology) and 0.25% (w/v) trypsin-EDTA. Cells were diluted to a density of 3.5-4.5×10^6 cells/mL with media consisting of CHO-S-SFM (Sigma), 25 mM HEPES (Sigma) and Soy bean trypsin inhibitor (Sigma).
FRT-TMEM16A cells were whole-cell patch clamped using an automated planar patch clamp system (Qpatch, Sophion). Briefly, once high resistance (GOhm) seals were established between the cells and the planar recording array the patch was ruptured using suction pulses to establish the whole-cell recording configuration of the patch clamp technique. The assay employed the following solutions (all reagents Sigma): Intracellular solution (mM): N-methyl-D-glucamine 130, CaCh 18.2, MgCh 1. HEPES 10, EGTA 10, BAPTA 20, Mg-ATP 2, pH 7.25, 325 mOsm with sucrose.
Extracellular solution (mM): N-methyl-D-glucamine 130, CaCl2 2, MgCh 1, HEPES 10, pH 7.3, 320 mOsm with sucrose.
The intracellular solution buffers intracellular calcium at levels required to give −20% activation of the maximal TMEM16A mediated current (EC20 for calcium ions). Cells were voltage clamped at a holding potential of −70 mV and a combined voltage step (to +70 mV)/ramp (−90 my to +90 mV) was applied at 0.05 Hz. After a period of current stabilisation test compounds, solubilised in 100% (v/v) DMSO and subsequently diluted into extracellular solution, were applied to generate a cumulative concentration response curve. Each concentration of test compound was incubated for 5 minutes before addition of the next concentration. After the final concentration was tested a supramaximal concentration of either a known active positive modulator or the TMEM16A inhibitor. CaCCinhAOI (Del La Fuente et al, 2008) was added to define the upper and lower limits of the assay.
Compound activity was quantified by measuring the increase in current upon compound addition and expressing this as a percentage increase of baseline TMEM16A current level. […]
Peak TMEM16A current at +70 mV was plotted as a function of time over the assay period. Baseline current (IBL) was measured after a period of stabilisation. The increase in current for each compound addition was determined by taking the peak current during the incubation period and subtracting the current from the previous recording period and then expressing this as a percentage of the baseline current. […]
For each additional concentration tested the increase in current was determined by subtracting the current from the previous incubation period and normalising the baseline value—for test concentration 2 in FIG. 1 this is: (I[#2]−I[# ? /IBL)×100
The values for each test concentration were plotted as a cumulative function of concentration eg. for test concentration two this would be the sum of the peak changes measured during concentration one plus concentration two.

Structure (SMILES): C#CC(C)(C)NC(=O)c1cc(NC(=O)Cc2cccc3cc[nH]c23)ccn1 [Example 79.3, N-(1,1-Dimethylprop-2-ynyl)-4-[[2-(1H-indol-7-yl)acetyl]amino]pyridine-2-carboxamide]
- % Potentiation @ 3.33 μM Avg: 64%

Structure (SMILES): O=C(Cc1cc(Cl)ccc1O)Nc1ccnc(C(=O)NC23CCC(F)(C2)C3)c1 [Example 44, 4-[[2-(5-Chloro-2-hydroxy-phenyl)acetyl]amino]-N-(4-fluoro-1-bicyclo[2.1.1]hexanyl)pyridine-2-carboxamide]
- % Potentiation @ 3.33 μM Avg: 1%

Structure (SMILES): CC(C)(C)NC(=O)c1cc(NC(=O)[C@@H]2CCc3ccccc32)ccn1 (single isomer, unassigned) [Example 21a, N-tert-Butyl-4-[[(1R)-indane-1-carbonyl]amino]pyridine-2-carboxamide or N-tert-Butyl-4-[[(1S)-indane-1-carbonyl]amino]pyridine-2-carboxamide]
- % Potentiation @ 3.33 μM Avg: 99%

Structure (SMILES): O=C(Cc1cc(Cl)ccc1O)Nc1ccnc(C(=O)N[C@@]2(CO)CCOC2)c1 (single isomer, unassigned) [Example 35b, 4-[[2-(5-Chloro-2-hydroxy-phenyl)acetyl]amino]-N-[(3R)-3-(hydroxymethyl)tetrahydrofuran-3-yl]pyridine-2-carboxamide or 4-[[2-(5-chloro-2-hydroxy-phenyl)acetyl]amino]-N-[(3S)-3-(hydroxymethyl)tetrahydrofuran-3-yl]pyridine-2-carboxamide]
- % Potentiation @ 3.33 μM Avg: 190%

Structure (SMILES): CC(C)(C)NC(=O)c1cc(NC(=O)C2(c3cccc(Cl)c3)CC2)ccn1 [Example 5.31, N-tert-butyl-4-[[1-(3-chlorophenyl)cyclopropanecarbonyl]amino]pyridine-2-carboxamide]
- % Potentiation @ 3.33 μM Avg: 145%
